# Results reported in patent US6887873B2, “Triazine derivatives and their application as antitelomerase agents” (Aventis Pharma S.A., priority 2001, dated 2005).
# Assays:
# [1] = test system: human telomerease (HL60 cell extract); assay: Antitelomerease activity: extension of oligonucleotide TS followed by PCR amplification, with HL60 extract; format: biochemical; details: read-out: TRAP IC50
# Method: The antitelomerease biological activity is determined by the following experimental protocol:
# The leukaemia line HL60 is obtained from ATCC (American Type Culture Collection, Rockville, USA). The cells are cultured in suspension in RPMI 1640 medium containing L-glutamine at 2 mM, penicillin 200 U/ml, streptomycin 200 μg/ml, gentamycin 50 μg/ml and supplemented with 10% heat-inactivated foetal calf serum.
# An aliquot of 10^5 cells is centrifuged at 3000×G and the supernatant discarded. The cell pellet is resuspended by several successive pipettings in 200 μl of lysis buffer containing 0.5% CHAPS, 10 mM Tris-HCl, pH 7.5, 1 mM MgCl2, 1 mM EGTA, 5 mM β-mercaptoethanol, 0.1 mM PMSF and 10% glycerol and is stored in ice for 30 minutes. The lysate is centrifuged at 160,000×G for 20 minutes at 4° C. and 160 μl of supernatant are recovered. The proteins in the extract are assayed by the Bradford method. The extract is stored at −80° C.
# The inhibition of the telomerease activity is determined by a protocol for extension of the oligonucleotide TS (^5′AATCGTTCGAGCAGAGTT^3′), in the presence of a cellular extract enriched in telomerease activity and compounds which are added at various concentrations (10, 1, 0.1 and 0.01 μM). The extension reaction is followed by a PCR amplification of the extension products with the aid of the oligonucleotides TS and CXext (^5′[…]^3′).
# The reaction medium is prepared based on the following composition:
# The oligonucleotides are obtained from Eurogentec (Belgium) and are stored at −20° C. at a stock concentration of 1 mg/ml in distilled water.
# The reaction samples are assembled in 0.2 ml PCR tubes and one drop of paraffin oil is deposited on each of the reactions of the experiment before closing the tubes.
# The reaction samples are then incubated in a Cetus 4800-type PCR apparatus under the following temperature conditions: • 15 minutes at 30° C., • 1 minute at 90° C., • followed by 30 cycles of, • 30 seconds at 94° C., • 30 seconds at 50° C., • and 1 minute 30 seconds at 72° C., • followed by a final cycle of 2 minutes at 72° C.
# For each of the samples, an aliquot of 10 μl is pipetted under the oil layer and mixed with 5 μl of a loading buffer containing:
# The samples are then analysed by electrophoresis on 12% acrylamide gel in a 1×TBE buffer for 1 hour at a voltage of 200 volts, with the aid of a Novex electrophoresis system.
# The acrylamide gels are then dried on a sheet of Whatmann 3 mm paper at 80° C. for 1 hour.
# The analysis and the quantification of the reaction products are carried out with the aid of an InstantImager apparatus (Pacard).
# For each compound concentration tested, the results are expressed as percentage inhibition of the reaction and calculated from the untreated enzymatic control and from the enzyme-free sample (blank) according to the following formula: (compound value−blank value/enzymatic control value−blank value)×100.
# The concentration of compound inducing a 50% inhibition of the telomerease reaction (IC50) is determined with the aid of a semilogarithmic graphical representation of the inhibition values obtained as a function of each of the compound concentrations tested.
# A compound is considered to be active as an antitelomerease agent when the quantity inhibiting 50% of the telomerease reaction is in particular less than 5 μM.
# [2] = test system: G-quadruplex of oligonucleotide GGGTTAGGGTTAGGGTTAGGG (3.5 repeats of the human telomereic motif); assay: G-quadruplex stabilizing activity, fluorescence Tm (FAM+DABCYL oligonucleotide); format: binding
# Text: The G-quadruplex stabilizing activity may be determined by a method using the formation of a complex with fluorescein of which the experimental protocol is described below.
# All the nucleotides, modified or otherwise, were synthesized by Eurogentec SA, Seraing, Belgium. The oligonucleotide FAM+DABCYL carries the catalogue reference OL-0371-0802. It has the sequence: […] corresponding to 3.5 repeats of the human telomereic motif (strand rich in G). The fluorescein is attached to the 5′ end, the DABCYL to the 3′ end, by the chemical arms described by Eurogentec. The concentration of the samples is checked by spectrophotometry, recording the absorbance spectrum between 220 and 700 nm and using the molar extinction coefficient provided by the supplier.
# All the experiments were carried out in a 10 mM sodium cacodylate buffer pH 7.6 containing 0.1 M lithium chloride (or sodium chloride). The absence of fluorescent contamination in the buffer was checked beforehand. The fluorescent oligonucleotide is added at the final concentration of 0.2 μM.
# All the measurements of fluorescence were carried out on a Spex Fluorolog DM1B apparatus, using an excitation line width of 1.8 nm and an emission line width of 4.5 nm. The samples are placed in a microquartz cuvette of 0.2×1 cm. The temperature of the sample is controlled by an external water bath. The oligonucleotide alone was analysed at 20, 30, 40, 50, 60, 70 and 80° C. The emission spectra are recorded using an excitation wavelength of 470 nm. The excitation spectra are recorded using either 515 nm or 588 nm as emission wavelength. The spectra are corrected for the response of the instrument by reference curves. A high extinction (80-90%) of the fluorescence of fluorescein at room temperature is observed, in agreement with an intramolecular folding of the oligonucleotide at 20° C. in the form of a G-quadruplex, which induces juxtaposition of its 5′ and 3′ ends which are respectively linked to fluorescein and to DABCYL. This juxtaposition causes an already-described phenomenon of extinction of fluorescence which is used for “molecular beacons”.
# An oligonucleotide stock solution at the strand concentration of 0.2 μM in 0.1 M LiCl, 10 mM cacodylate buffer, pH 7.6, is prepared beforehand, heated briefly at 90° C. and slowly cooled to 20° C., and then distributed in aliquots of 600 μl in the fluorescence cuvettes. 3 μl of water (for the control) or 3 μl of test product (stock at 200 μM, final concentration 1 μM) are then added and mixed. The samples are then allowed to incubate for at least 1 hour at 20° C. before each measurement. The use of longer incubation times (up to 24 hours) has no influence on the result obtained.
# Each experiment allows the measurement of only one sample. The latter is first incubated at an initial temperature of 20° C., heated to 80° C. over 38 minutes, left for 5 minutes at 80° C. and then cooled to 20° C. over 62 minutes. During this time, the fluorescence is measured simultaneously at two emission wavelengths (515 nm and 588 nm) using 470 nm as excitation wavelength. A measurement is carried out every 30 seconds. The temperature of the water bath is recorded in parallel, and the fluorescence profile as a function of the temperature is reconstituted from these values. The fluorescence profiles are then normalized between 20° C. and 80° C., and the temperature for which the intensity of emission at 515 nm is the mean of those at high and low temperature is called Tm. Under these conditions, the Tm of the reference sample without addition of product is 44° C. in a lithium chloride buffer. This temperature is increased to more than 55° C. in a sodium chloride buffer. The addition of a G-quadruplex-stabilizing compound induces an increase in the Tm. This increase is judged to be significant if it is greater than 3°.
Compound,IC50 [1] [nM],G4 delta Tm [2] [°C]
Cc1cc(N)c2cc(Nc3nc(Nc4ccc5nc(C)cc(N)c5c4)nc(N4CCN(C(=O)C5CCCO5)CC4)n3)ccc2n1 (centres unmarked) [Example 72],210,9.5
Cc1cc(N)c2cc(Nc3nc(Nc4ccc5nc(C)cc(N)c5c4)nc(NC(CO)CO)n3)ccc2n1 [Example 173],620,11.5
CCN(CC)CCSc1nc(Nc2ccc3nc(C)cc(N)c3c2)nc(Nc2ccc3nc(C)cc(N)c3c2)n1 [Example 130],300,9
Cc1cc(N)c2cc(Nc3nc(NCC[N+](C)(C)C)nc(Nc4ccc5nc(C)cc(N)c5c4)n3)ccc2n1 [Example 54],170,16
COCCNc1nc(Nc2ccc3nc(C)cc(N(C)C)c3c2)nc(Nc2ccc3nc(C)cc(N(C)C)c3c2)n1 [Example 25],2200,4.2
Cc1cc(N(C)C)c2cc(Nc3nc(Nc4ccc5nc(C)cc(N(C)C)c5c4)nc(NC(CO)CO)n3)ccc2n1 [Example 170],1300,3
CC(=O)NCCNc1nc(Nc2ccc3nc(C)cc(N)c3c2)nc(Nc2ccc3nc(C)cc(N)c3c2)n1 [Example 35],500,11.0
Cc1cc(N)c2cc(Nc3nc(Nc4ccc5nc(C)cc(N)c5c4)nc(Oc4ccccn4)n3)ccc2n1 [Example 110],610,20.5
COC(=O)CSc1nc(Nc2ccc3nc(C)cc(N)c3c2)nc(Nc2ccc3nc(C)cc(N)c3c2)n1 [Example 125],360,14.5
Cc1cc(N)c2cc(Nc3nc(Nc4ccc5nc(C)cc(N)c5c4)nc(SCCN(C)C)n3)ccc2n1 [Example 132],400,12.5
COc1cccc(Sc2nc(Nc3ccc4nc(C)cc(N)c4c3)nc(Nc3ccc4nc(C)cc(N)c4c3)n2)c1 [Example 122],370,13.5
Cc1cc(N)c2cc(Nc3nc(NCCN4CCCC4)nc(Nc4ccc5nc(C)cc(N)c5c4)n3)ccc2n1 [Example 46],1000,18.5
"Cc1cc(N)c2cc(Nc3nc(Nc4ccc5nc(C)cc(N)c5c4)nc(Oc4ccncc4)n3)ccc2n1 [Example 32, 2,4-bis(4-amino-2-methylquinolin-6-yl)amino-6-(pyridin-4-yl)oxy-[1,3,5]triazine]",300,10.0
COCC1CCCN1c1nc(Nc2ccc3nc(C)cc(N)c3c2)nc(Nc2ccc3nc(C)cc(N)c3c2)n1 (centres unmarked) [Example 159],430,10.5
Cc1cc(N)c2cc(Nc3nc(NCC4CCCN4)nc(Nc4ccc5nc(C)cc(N)c5c4)n3)ccc2n1 (centres unmarked) [Example 16],80,7.3
Cc1cc(N)c2cc(Nc3nc(Nc4ccc5nc(C)cc(N)c5c4)nc(OCc4ccccn4)n3)ccc2n1 [Example 114],1260,13.5
Cc1cc(N)c2cc(Nc3nc(Nc4ccc5nc(C)cc(N)c5c4)nc(Nc4cccc5ccc(C)nc45)n3)ccc2n1 [Example 98],350,4
Cc1cc(N)c2cc(Nc3nc(Nc4ccc5nc(C)cc(N)c5c4)nc(N4CCN(CCOCCO)CC4)n3)ccc2n1 [Example 69],160,18
Cc1cc(N(C)C)c2cc(Nc3nc(Nc4ccc5nc(C)cc(N(C)C)c5c4)nc(N(CCO)CCO)n3)ccc2n1 [Example 161],1900,12
Cc1cc(N)c2cc(Nc3nc(Nc4ccc5nc(C)cc(N)c5c4)nc(N4CCN(CCN(C)C)CC4)n3)ccc2n1 [Example 88],110,6
Cc1cc(N)c2cc(Nc3nc(Nc4ccc5nc(C)cc(N)c5c4)nc(N4CCCC(O)C4)n3)ccc2n1 (centres unmarked) [Example 160],360,10.5
"Cc1cc(N)c2cc(Nc3nc(Nc4ccc5nc(C)cc(N)c5c4)nc(Nc4ccc5nc(C)cc(N(C)C)c5c4)n3)ccc2n1 [Example 11, 2,4-bis(4-amino-2-methylquinolin-6-yl)amino-6-(4-dimethylamino-2-methylquinolin-6-yl)amino-[1,3,5]triazine]",160,11.4
Cc1cc(N)c2cc(Nc3nc(Nc4ccc5nc(C)cc(N)c5c4)nc(Oc4ccc5ccccc5c4)n3)ccc2n1 [Example 108],370,3
Cc1cc(N)c2cc(Nc3nc(Nc4ccc5nc(C)cc(N)c5c4)nc(N4CCC(O)CC4)n3)ccc2n1 [Example 155],390,14
Cc1cc(N)c2cc(Nc3nc(Nc4ccncc4)nc(Nc4ccccc4Cl)n3)ccc2n1 [Example 4],3000,5.5
Cc1cc(N(C)C)c2cc(Nc3nc(NCCO)nc(Nc4ccc5nc(C)cc(N(C)C)c5c4)n3)ccc2n1 [Example 167],1100,6
Cc1cc(N)c2cc(Nc3nc(Nc4ccc5nc(C)cc(N)c5c4)nc(N(C)CC4CCN(C)CC4)n3)ccc2n1 [Example 48],100,14
"Cc1cc(N)c2cc(Nc3nc(Nc4ccc5nc(C)cc(N)c5c4)nc(OCCCN(C)C)n3)ccc2n1 [Example 31, 2,4-bis(4-amino-2-methylquinolin-6-yl)amino-6-(3-dimethylaminopropyl)oxy-[1,3,5]triazine]",300,15.3
